Assay: Comparison of solubility of precursor compounds according to the kind of reaction solvents (observation with the naked eye)
Assay type: physicochemical
Conditions: for Solubility in 2-methyl-3-butene-2-ol (the present invention), 60° C. / Solubility in 2-methyl-3-butene-2-ol (the present invention), room temp: 1.0 ml 2-methyl-3-butene-2-ol; for Solubility in 2-methyl-3-butene-2-ol (the present invention), 60° C. / Solubility in 2-methyl-3-butyne-2-ol (the present invention), 60° C. / Solubility in t-amyl alcohol (KR 10-0789847), 60° C.: shaking 1 minute at 60° C.; for Solubility in 2-methyl-3-butene-2-ol (the present invention), 60° C. / Solubility in 2-methyl-3-butene-2-ol (the present invention), room temp / Solubility in 2-methyl-3-butyne-2-ol (the present invention), 60° C. / Solubility in 2-methyl-3-butyne-2-ol (the present invention), room temp / Solubility in t-amyl alcohol (KR 10-0789847), 60° C. / Solubility in t-amyl alcohol (KR 10-0789847), room temp: naked eye; for Solubility in 2-methyl-3-butene-2-ol (the present invention), room temp / Solubility in 2-methyl-3-butyne-2-ol (the present invention), room temp / Solubility in t-amyl alcohol (KR 10-0789847), room temp: shaking 1 minute at room temperature; for Solubility in 2-methyl-3-butyne-2-ol (the present invention), 60° C. / Solubility in 2-methyl-3-butyne-2-ol (the present invention), room temp: 1.0 ml 2-methyl-3-butyne-2-ol; for Solubility in t-amyl alcohol (KR 10-0789847), 60° C. / Solubility in t-amyl alcohol (KR 10-0789847), room temp: 1.0 ml t-amyl alcohol; for State of solution dissolved at 60° C. after cooling to room temperature, t-amyl alcohol: cooled to room temperature after the lapse of time; for State of solution dissolved at 60° C. after cooling to room temperature, 2-methyl-3-butene-2-ol / 2-methyl-3-butyne-2-ol: solvents of the present invention, dissolved by heating to 60° C., cooled to room temperature
Protocol: Experiments for comparing the solubility in the 2-methyl-3-butene-2-ol solvent and 2-methyl-3-butyne-2-ol solvent according to the present invention, and the t-amyl alcohol solvent of the prior art (KE 10-0789847) were performed. Each of the precursors of FP-CIT, FDG, FLT, FMISO and FC119S in solid states was put in a vial, and 1.0 ml of each solvent was added thereto, followed by shaking at room temperature and 60° C. for 1 minutes, respectively, for dissolution.

| Solubility in 2-methyl-3-butene-2-ol (the present invention), 60° C. | Solubility in 2-methyl-3-butene-2-ol (the present invention), room temp | Solubility in 2-methyl-3-butyne-2-ol (the present invention), 60° C. | Solubility in 2-methyl-3-butyne-2-ol (the present invention), room temp | Solubility in t-amyl alcohol (KR 10-0789847), 60° C. | Solubility in t-amyl alcohol (KR 10-0789847), room temp | State of solution dissolved at 60° C. after cooling to room temperature, t-amyl alcohol | State of solution dissolved at 60° C. after cooling to room temperature, 2-methyl-3-butene-2-ol / 2-methyl-3-butyne-2-ol | SMILES |
| --- | --- | --- | --- | --- | --- | --- | --- | --- |
| Dissolved | Dissolved | Dissolved | Dissolved | Dissolved | Insoluble | precipitated again as solids | – | CC(=O)OC[C@H]1O[C@@H](OC(C)=O)[C@@H](OS(=O)(=O)C(F)(F)F)[C@@H](OC(C)=O)[C@@H]1OC(C)=O [FDG, 1,3,4,6-tetra-O-acetyl-2-O-trifluoro-methanesulfonyl-beta-D-mannopyranose] |
| Dissolved | Dissolved | Dissolved | Insoluble | Insoluble | Insoluble | – | not precipitated as solids | Cc1cn([C@H]2C[C@H](OS(=O)(=O)c3ccc([N+](=O)[O-])cc3)[C@@H](COC(c3ccccc3)(c3ccccc3)c3ccccc3)O2)c(=O)n(C(=O)OC(C)(C)C)c1=O [FLT, 3-N-Boc-5′-O-trityl-3′-O-nosyl-thymidine] |
| Dissolved | Insoluble | Dissolved | Dissolved | Dissolved | Insoluble | precipitated again as solids | not precipitated as solids | O=[N+]([O-])c1nccn1CC(O)CF (centres unmarked) [FMISO] |

Further lines, the compound ahead of its results:

| SMILES | Solubility in 2-methyl-3-butene-2-ol (the present invention), 60° C. | Solubility in 2-methyl-3-butene-2-ol (the present invention), room temp | Solubility in 2-methyl-3-butyne-2-ol (the present invention), 60° C. | Solubility in 2-methyl-3-butyne-2-ol (the present invention), room temp | Solubility in t-amyl alcohol (KR 10-0789847), 60° C. | Solubility in t-amyl alcohol (KR 10-0789847), room temp | State of solution dissolved at 60° C. after cooling to room temperature, t-amyl alcohol | State of solution dissolved at 60° C. after cooling to room temperature, 2-methyl-3-butene-2-ol / 2-methyl-3-butyne-2-ol |
| --- | --- | --- | --- | --- | --- | --- | --- | --- |
| CCC(Oc1ccc2ccccc2c1)OS(C)(=O)=O (centres unmarked) [1-(naphthalene-2-yloxy)propyl methanesulfonate] | Dissolved | Dissolved | – | – | – | – | – | – |
| CS(=O)(=O)OCCCOc1ccc2ccccc2c1 [3-(naphthalene-2-yloxy)propyl methanesulfonate] | Dissolved | Dissolved | – | – | – | – | – | – |
| CN(C(=O)OC(C)(C)C)c1ccc(-c2nc3ccc(OC[C@@H](COS(=O)(=O)c4ccc([N+](=O)[O-])cc4)OC4CCCCO4)cc3s2)cn1 (stereo partly drawn) [FC119S, (2S)-3-((2-(6-((tert-butoxycarbonyl) (methyl)amino)pyridin-3-yl)benzo[d]thiazol-6-yl)oxy)-2-((tetrahydro-2H-pyran-2-yl)oxy)propyl 4-nitrobenzenesulfonate] | Dissolved | Dissolved | Dissolved | Dissolved | Insoluble | Insoluble | – | – |

From patent US11306091B2, “Process for producing fluorinated compounds using alcohol solvent having unsaturated hydrocarbon” (FUTURECHEM CO., LTD, priority 2019, dated 2022)
